ChEMBL document CHEMBL1149784, “Discovery of a new anilino-3H-pyrrolo[3,2-f]quinoline derivative as potential anti-cancer agent” (Eur J Med Chem, 2008)
Active and inactive are the calls of the source. No cut-off for these calls is given here.

How the values were obtained:
OVCAR-3 [1] = test: Cell cycle arrest in human OVCAR-3 cells assessed as accumulation at subG0 phase at 16 uM by flow cytometry; type: functional
OVCAR-3 [2] = test: Cell cycle arrest in human OVCAR-3 cells assessed as accumulation at G0/G1 phase at 16 uM by flow cytometry; type: functional
OVCAR-3 [3] = test: Cell cycle arrest in human OVCAR-3 cells assessed as accumulation at S phase at 16 uM by flow cytometry; type: functional
OVCAR-3 [4] = test: Cell cycle arrest in human OVCAR-3 cells assessed as accumulation at G2/M phase at 16 uM by flow cytometry; type: functional
OVCAR-3 [5] = test: Cell cycle arrest in human OVCAR-3 cells assessed as accumulation at subG0 phase at 1 uM by flow cytometry; type: functional
OVCAR-3 [6] = test: Cell cycle arrest in human OVCAR-3 cells assessed as accumulation at G0/G1 phase at 1 uM by flow cytometry; type: functional
OVCAR-3 [7] = test: Cell cycle arrest in human OVCAR-3 cells assessed as accumulation at S phase at 1 uM by flow cytometry; type: functional
OVCAR-3 [8] = test: Cell cycle arrest in human OVCAR-3 cells assessed as accumulation at G2/M phase at 1 uM by flow cytometry; type: functional
HL-60 = test: Growth inhibition of human HL60 cells after 72 hrs by trypan blue assay; type: functional, cell-based; conditions: HL-60, 72 h
HeLa = test: Growth inhibition of human HeLa cells after 72 hrs by trypan blue assay; type: functional, cell-based
[9] = Growth inhibition of human JR8 cells after 72 hrs by trypan blue assay; type: functional, cell-based; conditions: JR8, 72 h
OVCAR-3 [10] = test: Growth inhibition of human OVCAR-3 cells after 72 hrs by trypan blue assay; type: functional, cell-based; conditions: OVCAR-3, 72 h
[11] = molecular target: DNA topoisomerase 2-alpha (Homo sapiens) (UniProt P11388); test: Inhibition of human recombinant topoisomerase 2 assessed as relaxation of supercoiled pBR322 DNA
OVCAR-3 [12] = test: Cell cycle arrest in human OVCAR-3 cells assessed as accumulation at subG0 phase at 5 uM by flow cytometry; type: functional
OVCAR-3 [13] = test: Cell cycle arrest in human OVCAR-3 cells assessed as accumulation at G0/G1 phase at 5 uM by flow cytometry; type: functional
OVCAR-3 [14] = test: Cell cycle arrest in human OVCAR-3 cells assessed as accumulation at S phase at 5 uM by flow cytometry; type: functional
OVCAR-3 [15] = test: Cell cycle arrest in human OVCAR-3 cells assessed as accumulation at G2/M phase at 5 uM by flow cytometry; type: functional
OVCAR-3 [16] = test: Cell cycle arrest in human OVCAR-3 cells assessed as accumulation at subG0 phase at 10 uM by flow cytometry; type: functional
OVCAR-3 [17] = test: Cell cycle arrest in human OVCAR-3 cells assessed as accumulation at G0/G1 phase at 10 uM by flow cytometry; type: functional
OVCAR-3 [18] = test: Cell cycle arrest in human OVCAR-3 cells assessed as accumulation at S phase at 10 uM by flow cytometry; type: functional
OVCAR-3 [19] = test: Cell cycle arrest in human OVCAR-3 cells assessed as accumulation at G2/M phase at 10 uM by flow cytometry; type: functional
Salmonidae = test: Binding affinity to Salmon testes DNA assessed as drug-DNA complex formation by linear flow dichroism method

Sequence of DNA topoisomerase 2-alpha (Homo sapiens) (P11388 whole entry): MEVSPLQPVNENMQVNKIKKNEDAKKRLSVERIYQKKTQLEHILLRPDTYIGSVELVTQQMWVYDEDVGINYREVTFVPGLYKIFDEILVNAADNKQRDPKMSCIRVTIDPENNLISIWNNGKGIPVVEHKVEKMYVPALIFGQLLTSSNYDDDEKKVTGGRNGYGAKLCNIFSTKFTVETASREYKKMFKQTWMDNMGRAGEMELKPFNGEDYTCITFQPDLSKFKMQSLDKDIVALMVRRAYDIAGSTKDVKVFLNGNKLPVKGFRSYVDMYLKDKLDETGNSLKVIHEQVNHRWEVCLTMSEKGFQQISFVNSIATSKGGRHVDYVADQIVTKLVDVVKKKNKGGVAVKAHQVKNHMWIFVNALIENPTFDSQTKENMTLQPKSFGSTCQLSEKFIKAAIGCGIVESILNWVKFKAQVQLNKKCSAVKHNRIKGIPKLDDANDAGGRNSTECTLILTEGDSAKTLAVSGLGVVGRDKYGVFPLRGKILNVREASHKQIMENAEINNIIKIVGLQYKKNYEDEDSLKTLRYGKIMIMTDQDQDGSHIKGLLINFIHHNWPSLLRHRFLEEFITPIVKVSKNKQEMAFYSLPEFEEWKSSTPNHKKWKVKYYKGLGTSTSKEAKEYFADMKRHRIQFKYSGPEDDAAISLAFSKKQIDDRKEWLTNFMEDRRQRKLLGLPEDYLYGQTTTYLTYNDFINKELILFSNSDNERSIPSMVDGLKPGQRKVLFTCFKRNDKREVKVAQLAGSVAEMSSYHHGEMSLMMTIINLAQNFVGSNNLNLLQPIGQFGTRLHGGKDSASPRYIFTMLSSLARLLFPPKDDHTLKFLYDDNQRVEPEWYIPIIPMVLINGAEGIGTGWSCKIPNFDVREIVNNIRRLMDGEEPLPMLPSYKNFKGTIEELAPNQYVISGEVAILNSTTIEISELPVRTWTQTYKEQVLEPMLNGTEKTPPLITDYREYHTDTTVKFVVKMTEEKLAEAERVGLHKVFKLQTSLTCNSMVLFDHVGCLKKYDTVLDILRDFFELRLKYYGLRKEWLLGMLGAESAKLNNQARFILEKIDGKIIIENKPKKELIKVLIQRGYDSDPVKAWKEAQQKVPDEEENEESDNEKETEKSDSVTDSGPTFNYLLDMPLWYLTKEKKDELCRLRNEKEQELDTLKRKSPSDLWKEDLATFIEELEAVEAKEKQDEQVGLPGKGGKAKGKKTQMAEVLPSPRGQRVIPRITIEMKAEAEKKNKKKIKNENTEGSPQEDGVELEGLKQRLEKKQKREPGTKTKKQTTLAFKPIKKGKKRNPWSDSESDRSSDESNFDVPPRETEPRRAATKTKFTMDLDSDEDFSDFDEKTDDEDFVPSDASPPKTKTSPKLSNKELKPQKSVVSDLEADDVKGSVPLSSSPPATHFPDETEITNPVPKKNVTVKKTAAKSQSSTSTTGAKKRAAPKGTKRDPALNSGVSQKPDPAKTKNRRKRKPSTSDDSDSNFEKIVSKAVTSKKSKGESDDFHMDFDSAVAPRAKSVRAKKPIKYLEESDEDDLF

Q: For `COc1cc(NS(C)(=O)=O)ccc1Nc1c2ccccc2nc2ccccc12` [AMSACRINE], which Activity (OVCAR-3 [1]) is on record?
A: Its Activity is 1.8%.

Q: What about the Activity (OVCAR-3 [2]) of the same compound?
A: The Activity was 44.7%.

Q: What about the Activity (OVCAR-3 [3]) of the same compound?
A: Its Activity is 12.7%.

Q: What about the Activity (OVCAR-3 [4]) of the same compound?
A: Its Activity is 41.3%.

Q: With `CC[C@]1(O)C[C@H]2CN(CCc3c([nH]c4ccccc34)[C@@](C(=O)OC)(c3cc4c(cc3OC)N(C=O)[C@H]3[C@@](O)(C(=O)OC)[C@H](OC(C)=O)[C@]5(CC)C=CCN6CC[C@]43[C@@H]65)C2)C1` [VINCRISTINE] as the compound, how does the Activity (OVCAR-3 [5]) read?
A: The Activity was 0.5%.

Q: And the Activity (OVCAR-3 [6])?
A: The Activity was 46.8%.

Q: And the Activity (OVCAR-3 [7])?
A: The Activity was 7.9%.

Q: And the Activity (OVCAR-3 [8])?
A: Its Activity is 45.2%.

Q: With `CC(=O)c1ccc(Nc2ccnc3ccc4[nH]ccc4c23)cc1.Cl` as the compound, how does the IC50 (HL-60) read?
A: Its IC50 is 0.5 µM.

Q: And the IC50 (HeLa)?
A: The IC50 was 3.4 µM.

Q: What about the IC50 [9] of the same compound?
A: Its IC50 is 0.59 µM.

Q: And the IC50 (OVCAR-3 [10])?
A: The IC50 was 0.53 µM.

Q: What about the Activity [11] of the same compound?
A: Its Activity is “Dose-dependent effect”.

Q: And the Activity (OVCAR-3 [5])?
A: The Activity was 7.6%.

Q: And the Activity (OVCAR-3 [6])?
A: The Activity was 51.9%.

Q: And the Activity (OVCAR-3 [7])?
A: The Activity was 9.4%.

Q: And the Activity (OVCAR-3 [8])?
A: Its Activity is 31.4%.

Q: What about the Activity (OVCAR-3 [12]) of the same compound?
A: The Activity was 4.3%.

Q: And the Activity (OVCAR-3 [13])?
A: The Activity was 24.7%.

Q: What about the Activity (OVCAR-3 [14]) of the same compound?
A: Its Activity is 13.6%.

Q: And the Activity (OVCAR-3 [15])?
A: The Activity was 57.8%.

Q: And the Activity (OVCAR-3 [16])?
A: The Activity was 0.5%.

Q: What about the Activity (OVCAR-3 [17]) of the same compound?
A: The Activity was 24.5%.

Q: And the Activity (OVCAR-3 [18])?
A: The Activity was 11.6%.

Q: What about the Activity (OVCAR-3 [19]) of the same compound?
A: Its Activity is 63.7%.

Q: What about the Activity (Salmonidae) of the same compound?
A: The Activity was “Active”.
